Starred links: 1 amine or outer side, 2 acyl side, 3 side chain; linkers in the order of their positions; H or OH if unused. Non-standard residues stand in square brackets, D forms with d. Residues, ends and D or L forms follow the SMILES beside them. *: point of attachment. Dolaproine = CO[C@@H]([C@@H]1CCCN1)[C@@H](C)C(=O)O; Hexanoyl(6-maleimido) = O=C1C=CC(=O)N1CCCCCC(=O)*; Dil = CC[C@H](C)[C@H](NC)[C@@H](CC(=O)O)OC; PABC = O=C(OCc1ccc(N[*:1])cc1)[*:2]; X1 = C[C@@H](N*)[C@@H](O)c1ccccc1; Cit = NC(=O)NCCC[C@H](N)C(=O)O; NMeV = CN[C@H](C(=O)O)C(C)C
Assays:
[1] = test system: acute myeloid leukemia (AML) at relapse; details: administered alone; cited from earlier work
cynomolgus monkeys [2] = test system: cynomolgus monkeys
[3] = test system: human breast cancer xenograft BT-483; assay: Efficacy in subcutaneous established human breast cancer xenograft BT-483 in SCID mice; assay type: in vivo; details: 5 mg/kg every four days for four doses, intravenous bolus; compared to control ADC
Description: In this experiment, human breast cancer BT-483 cells were used to generate stock xenografts, which were maintained by serial passages in SCID mice. Stock tumors were harvested sterilely and minced into 1 mm^3 pieces. Six (6) pieces were implanted into the flank of individual SCID mice. Tumors were allowed to grow untreated until they reached an approximate volume of 100 mm^3. The Ha22-2(2,4)6.1vcMMAE and the control ADC were dosed at 5 mg/kg every four (4) days for four (4) doses by intravenous bolus injection. The amount of ADC administered was based on the individual body weight of each animal obtained immediately prior to dosing. Tumor growth was monitored using caliper measurements every 3 to 4 days. Tumor volume was calculated as Width^2×Length/2, where width is the smallest dimension and length is the largest dimension.

[4] = test system: cell line engineered to express human 191P4D12; assay: In vitro cell survival, engineered cell line; assay type: cell-based
[5] = test system: patient-derived TNBC cell xenograft; assay: Patient-derived TNBC cell xenograft model; assay type: in vivo
breast cancer xenografts = assay: Formation of breast cancer xenografts (subcutaneous mouse xenograft model); set-up: species or system SCID mice; details: in vivo
Description: (§1) Subcutaneous (s.c.) tumors are generated by injection of 5×10^4- 10^6 cancer cells mixed at a 1:1 dilution with Matrigel (Collaborative Research) in the right flank of male SCID mice. To test ADC efficacy on tumor formation, ADC injections are started on the same day as tumor-cell injections. As a control, mice are injected with either purified human IgG or PBS; or a purified MAb that recognizes an irrelevant antigen not expressed in human cells. In preliminary studies, no difference is found between control IgG or PBS on tumor growth. Tumor sizes are determined by caliper measurements, and the tumor volume is calculated as width^2×Length/2, wherein width is the smallest dimension and length is the largest dimension. Mice with subcutaneous tumors greater than 1.5 cm in diameter are sacrificed.

cynomolgus monkeys [6] = assay: Immunogenicity in cynomolgus monkeys; assay type: in vivo
[7] = test system: xenografts of human lung adenocarcinoma cell line; assay: Tumor xenograft model, human lung adenocarcinoma cell line; assay type: in vivo
[8] = test system: xenograft of a patient-derived bladder cancer; assay: Tumor xenograft model, patient-derived bladder cancer; assay type: in vivo; details: in a dose-dependent manner
[9] = test system: human lung cancer xenograft AG-L4; assay: Efficacy in subcutaneous established human lung cancer xenograft AG-L4 in SCID mice; assay type: in vivo; details: 10 mg/kg every seven days for two doses, intravenous bolus; compared to control ADC
Description: In another experiment, patient-derived lung cancer xenograft AG-L4 was maintained by serial passages in SCID mice. Stock tumors were harvested sterilely and minced into 1 mm^3 pieces. Six (6) pieces were implanted into the flank of individual SCID mice. Tumors were allowed to grow untreated until they reached an approximate volume of 200 mm^3. The Ha22-2(2,4)6.1vcMMAE and the control ADC were dosed at 10 mg/kg every seven (7) days for two doses by intravenous bolus injection. The amount of ADC administered was based on the individual body weight of each animal obtained immediately prior to dosing. Tumor growth was monitored using caliper measurements every 3 to 4 days. Tumor volume was calculated as Width^2×Length/2, where width is the smallest dimension and length is the largest dimension.

[10] = test system: xenograft of human HR+breast cancer cell line; assay: Tumor xenograft model, human HR+ breast cancer cell line; assay type: in vivo; details: 5 mg/kg every 4 days for 4 doses
male and female rats = assay: Immunogenicity in rats; assay type: in vivo
[11] = test system: patient-derived lung adenocarcinoma; assay: Tumor xenograft model, patient-derived lung adenocarcinoma; assay type: in vivo
lung cancer xenografts = assay: Formation of lung cancer xenografts (subcutaneous mouse xenograft model); set-up: species or system SCID mice; details: in vivo
Description: as §1

191P4D12 = target: T1, 191P4D12 (Homo sapiens, UniProt Q96NY8); assay: Comparability study: binding affinity to 191P4D12
T1 sequence (Q96NY8 32-510): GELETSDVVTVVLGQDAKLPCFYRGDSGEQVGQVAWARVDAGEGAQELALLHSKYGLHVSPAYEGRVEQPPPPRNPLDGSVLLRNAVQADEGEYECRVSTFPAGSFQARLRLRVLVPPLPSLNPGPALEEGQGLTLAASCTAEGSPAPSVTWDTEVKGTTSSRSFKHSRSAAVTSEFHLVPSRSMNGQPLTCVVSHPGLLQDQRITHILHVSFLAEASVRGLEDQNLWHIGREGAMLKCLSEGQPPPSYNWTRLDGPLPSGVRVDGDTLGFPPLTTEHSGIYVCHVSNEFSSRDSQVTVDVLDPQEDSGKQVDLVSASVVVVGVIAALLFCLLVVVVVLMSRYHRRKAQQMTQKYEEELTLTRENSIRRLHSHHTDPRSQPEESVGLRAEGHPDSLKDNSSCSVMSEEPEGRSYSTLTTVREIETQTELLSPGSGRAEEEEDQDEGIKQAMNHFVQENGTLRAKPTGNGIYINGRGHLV

[12] = Comparability study: in vitro cytotoxicity; assay type: cell-based
rats [13] = assay: Toxicity studies in rats; assay type: in vivo
[14] = Comparability study: in vivo antitumor activity
[15] = test system: metastatic urothelial cancer; assay: EV-101 phase 1 dose escalation/expansion study; assay type: in vivo, human
From the text: EV-101 is a phase 1 dose escalation/expansion study that enrolled patients with 191P4D12-expressing solid tumors, (eg, metastatic urothelial cancer [UC]), who progressed on ≥1 prior chemotherapy regimen, including a cohort of patients with metastatic UC who received prior anti-PD-(L)1 therapy.
Enfortumab vedotin provided durable responses and meaningful survival results in patients after anti-PD-(L)-1 therapy in a population with a high unmet medical need. The confirmed ORR was 45% by a central review in patients who were treated with enfortumab vedotin 1.25 mg/kg. The median overall survival (OS) of 12.3 months is encouraging given the historical median OS is ≤10.3 months (Bellmunt J et al, N Eng J Med. 2017; 376(11):1015-1026).

[16] = test system: patients who progressed after platinum chemotherapy and a PD-1/L1 inhibitor; assay: EV-201 pivotal phase 2 study; assay type: in vivo, human
Description: In a pivotal phase 2 study (EV-201), patients must have had prior treatment with platinum-containing chemotherapy or be platinum-naïve and ineligible for cisplatin treatment. […] The confirmed ORR was 44% in patients treated with enfortumab vedotin 1.25 mg/kg. The median OS was 11.7 months and the median duration of response was 7.6 months.

monkeys = assay: Toxicity studies in monkeys; details: sexually immature male monkeys, doses up to 6 mg/kg
[17] = Absorbance / phototoxicity assessment (ICH S10)
rats [18] = assay: Micronucleus test in rats; assay type: in vivo
[19] = test system: L5178Y TK+/−mouse lymphoma; assay: L5178Y TK+/− mouse lymphoma mutation assay; assay type: cell-based
bacteria = assay: Reverse mutation test in bacteria (Ames test)
[20] = test system: squamous NSCLC, Gastric (GEJ) cancer, HNSCC, NSCLC-adenocarcinoma, head & neck cancer-squamous, and breast cancer; details: MMAE, Vinca, or both MMAE and Vinca; Vinca used if data for MMAE was not available; cited from earlier work

In the case of “CT-011: anti-PD-1 antibody, a humanized antibody”, the response [1] is listed as “failed to show response”.

In the case of “AGS-22M6E: ADC derived from a murine hybridoma cell line; antibody Ha22-2(2,4)6.1 conjugated to MMAE via vc linker”, the “pharmacokinetics, AGS-22M6E versus enfortumab vedotin” value (cynomolgus monkeys [2]) is reported as “comparable”, the “safety profile, AGS-22M6E versus enfortumab vedotin” value (cynomolgus monkeys [2]) is reported as “comparable” and the “growth of BT-483 breast tumor xenografts (tumor volume)” value [3] is reported as “significantly inhibited the growth”. The “cell survival / cell growth” value [4] was “inhibited cell survival”, the “pharmacological antitumor activity, enfortumab vedotin versus AGS-22M6E” value [5] was “comparable” and the “formation of breast cancer xenografts” value (breast cancer xenografts) was “inhibits formation”. For the same compound, the immunogenicity (cynomolgus monkeys [6]) was “moderately immunogenic”, the “immunogenicity, AGS-22M6E versus enfortumab vedotin” value (cynomolgus monkeys [6]) was “comparable” and the tumor growth [7] was “significantly inhibited tumor growth”. The tumor growth [8] was “significantly inhibited the tumor growth”, the “growth of AG-L4 lung cancer xenografts (tumor volume)” value [9] was “significantly inhibited the growth” and the tumor growth [10] was “significantly inhibited the tumor growth”. For the same compound, the immunogenicity (male and female rats) was “moderately immunogenic”, the tumor growth [11] was “significantly inhibited tumor growth” and the “formation of lung cancer xenografts” value (lung cancer xenografts) was “inhibits formation”.

In the case of enfortumab vedotin, the “safety profile, AGS-22M6E versus enfortumab vedotin” value (cynomolgus monkeys [2]) is reported as “comparable”, the “pharmacological antitumor activity, enfortumab vedotin versus AGS-22M6E” value [5] is reported as “comparable” and the “comparability of binding affinity to 191P4D12, enfortumab vedotin versus AGS-22M6E” value (191P4D12) is reported as “confirmed”. For the same compound, the “immunogenicity, AGS-22M6E versus enfortumab vedotin” value (cynomolgus monkeys [6]) was “comparable”, the “comparability of in vitro cytotoxicity, enfortumab vedotin versus AGS-22M6E” value [12] was “confirmed” and the “dose at which testicular toxicity (seminiferous tubule degeneration and hypospermia in the epididymis) was noted” value (rats [13]) was no less than 2.0 mg/kg. The “reversibility of testicular findings” value (rats [13]; end of a 24-week recovery period) was “partially reversed”, the “comparability of in vivo antitumor activity, enfortumab vedotin versus AGS-22M6E” value [14] was “confirmed” and the “median overall survival (OS)” value [15] was 12.3 months. The “confirmed ORR” value ([15]; by a central review, 1.25 mg/kg, metastatic urothelial cancer after anti-PD-(L)-1 therapy) was 45%, the “median OS” value [16] was 11.7 months and the “median duration of response” value [16] was 7.6 months. For the same compound, the “confirmed ORR” value ([16]; 1.25 mg/kg) was 44%, the testicular toxicity (monkeys) was “not observed” and the “photoreactivity / direct phototoxicity” value ([17]; concluded from absorbance of MMAE and vc-MMAE) was “not considered to be sufficiently photoreactive”.

For `CC[C@H](C)[C@@H]([C@@H](CC(=O)N1CCC[C@H]1[C@H](OC)[C@@H](C)C(=O)N[C@H](C)[C@@H](O)c1ccccc1)OC)N(C)C(=O)[C@@H](NC(=O)[C@H](C(C)C)N(C)C(=O)OCc1ccc(NC(=O)[C@H](CCCNC(N)=O)NC(=O)[C@@H](NC(=O)CCCCCN2C(=O)C=CC2=O)C(C)C)cc1)C(C)C` [vc-MMAE, valine-citrulline linker-MMAE] ({Hexanoyl(6-maleimido)}-V[Cit][PABC][NMeV]V[Dil][Dolaproine]-X1), the “absorbance against the criteria for phototoxicity testing as defined in the ICH S10 guidance” value [17] was “did not meet the criteria for phototoxicity testing”.

In the case of `CC[C@H](C)[C@@H]([C@@H](CC(=O)N1CCC[C@H]1[C@H](OC)[C@@H](C)C(=O)N[C@H](C)[C@@H](O)c1ccccc1)OC)N(C)C(=O)[C@@H](NC(=O)[C@@H](NC)C(C)C)C(C)C` [MMAE, monomethyl auristatin E] (H-[NMeV]V[Dil][Dolaproine]-X1), the chromosomal aberrations (rats [18]) is reported as “induce chromosomal aberrations”, the genotoxic potential [19] is reported as “no discernible genotoxic potential” and the genotoxic potential (bacteria) is reported as “no discernible genotoxic potential”. For the same compound, the “absorbance in the range of 290 nm to 700 nm” value [17] was “no absorbance” and the “sensitivity of the cancers to cytotoxicity” value [20] was “sensitive to cytotoxicity”.

In the case of AGS-22M6, the “cell survival / cell growth” value [4] is reported as “did not affect cell growth”.
